Laboratory results: patent publication US20240132484A1, “BROAD SPECTRUM ANTIVIRAL COMPOUNDS TARGETING THE SKI COMPLEX” (priority 2020, published 2024)
Values joined by “and” are separate entries in the source; they are usually repeats but may differ in a detail not shown here. Equal values may be shown once. “Also recorded” adds a separate entry of the source. Read-outs that look alike come from different tables or passages of the source.

Columns and labels:
SARS2 = type: cell-based, SARS-CoV-2; conditions: for Percentage Infection Relative to Appropriate DMSO Control with Avg Background Subtraction: Nunc Celigo plates; for Percentage Inhibition Average 1 μM / Screening data (Relative infection to DMSO controls) Average 1 μM: SARS2, 1 μM; for Screening data (Relative infection to DMSO controls) Average 1 μM / Screening data (Relative infection to DMSO controls) Average 5 μM / Screening data (Relative infection to DMSO controls) Average 10 μM / Screening data (Relative infection to DMSO controls) Average 25 μM / Screening data (Relative infection to DMSO controls) Average 50 μM / Average (relative infection to DMSO over the 5 tested concentrations): 100=DMSO control; for Percentage Inhibition Average 5 μM / Screening data (Relative infection to DMSO controls) Average 5 μM: SARS2, 5 μM; for Percentage Inhibition Average 10 μM / Screening data (Relative infection to DMSO controls) Average 10 μM: SARS2, 10 μM; for Percentage Inhibition Average 25 μM / Screening data (Relative infection to DMSO controls) Average 25 μM: SARS2, 25 μM; for Percentage Inhibition Average 50 μM / Screening data (Relative infection to DMSO controls) Average 50 μM: SARS2, 50 μM; for Average (relative infection to DMSO over the 5 tested concentrations): SARS2, average over 1 to 50 uM; for Infection Data, Average, Mean: average of Exp 1-2 (SMW491, SMW492); for Infection Data, Average, Mean percentage infection relative to DMSO control: Average of Exp 1 (SMW491) and Exp 2 (SMW492); for Infection Data, Percentage Infection Relative to Appropriate DMSO Control: single well, avg background subtraction
cells (nuclei count) = conditions: for Relative cell count to DMSO controls, Average 1 μM / Relative cell count to DMSO controls, Average 5 μM / Relative cell count to DMSO controls, Average 10 μM / Relative cell count to DMSO controls, Average 25 μM / Relative cell count to DMSO controls, Average 50 μM: toxicity data, 100=DMSO control; for Toxicity Data, Average, Mean percentage relative to DMSO control: Average of Exp 1 (SMW491) and Exp 2 (SMW492); for Relative cell count to DMSO controls, Average (for correlation analysis): average value over the 5 tested concentrations (1 to 50 uM); for Toxicity Data, Percentage Relative to Appropriate DMSO Control: single well

COc1ccc(CNCCc2ccccc2F)c(OCC(O)CN2CCN(C)CC2)c1 (racemic) [SILCS41] was tested, and the “SARS2 antiviral activity” value (SARS2) was “better activity than the original compound; also recorded: improved properties over UMB18g”, the “Percentage Infection Relative to Appropriate DMSO Control with Avg Background Subtraction” value (SARS2; Exp 1 (SMW491), 1 uM) was 92.14% and 78.53% and the “Percentage Infection Relative to Appropriate DMSO Control with Avg Background Subtraction” value (SARS2; Exp 1 (SMW491), 5 uM) was 20.40% and 20.73%. For the same compound, the “Percentage Infection Relative to Appropriate DMSO Control with Avg Background Subtraction” value (SARS2; Exp 1 (SMW491), 10 uM) was 2.55% and 1.51%, the “Percentage Infection Relative to Appropriate DMSO Control with Avg Background Subtraction” value (SARS2; Exp 1 (SMW491), 25 uM) was 2.26% and 4.77% and the “Percentage Infection Relative to Appropriate DMSO Control with Avg Background Subtraction” value (SARS2; Exp 1 (SMW491), 50 uM) was 5.27% and 3.84%. For the same compound, the “Percentage Infection Relative to Appropriate DMSO Control with Avg Background Subtraction” value (SARS2; Exp 2 (SMW492), 1 uM) was 11.86% and 10.73%, the “Percentage Infection Relative to Appropriate DMSO Control with Avg Background Subtraction” value (SARS2; Exp 2 (SMW492), 5 uM) was 15.34% and 12.91% and the “Percentage Infection Relative to Appropriate DMSO Control with Avg Background Subtraction” value (SARS2; Exp 2 (SMW492), 10 uM) was 1.08% and 2.35%. The “Percentage Infection Relative to Appropriate DMSO Control with Avg Background Subtraction” value (SARS2; Exp 2 (SMW492), 25 uM) was 1.58% and 3.10%, the “Percentage Infection Relative to Appropriate DMSO Control with Avg Background Subtraction” value (SARS2; Exp 2 (SMW492), 50 uM) was 8.27% and 6.25% and the “Percentage Inhibition Average 1 μM” value (SARS2) was 51.68%. The “Screening data (Relative infection to DMSO controls) Average 1 μM” value (SARS2) was 48.32, the “Percentage Inhibition Average 5 μM” value (SARS2) was 82.65% and the “Screening data (Relative infection to DMSO controls) Average 5 μM” value (SARS2) was 17.35. The “Percentage Inhibition Average 10 μM” value (SARS2) was 98.13%, the “Screening data (Relative infection to DMSO controls) Average 10 μM” value (SARS2) was 1.87 and the “Percentage Inhibition Average 25 μM” value (SARS2) was 97.07%. The “Screening data (Relative infection to DMSO controls) Average 25 μM” value (SARS2) was 2.93, the “Percentage Inhibition Average 50 μM” value (SARS2) was 94.09% and the “Screening data (Relative infection to DMSO controls) Average 50 μM” value (SARS2) was 5.91. The “Average (relative infection to DMSO over the 5 tested concentrations)” value (SARS2) was 15.28, the “Infection Data, Average, Mean” value (SARS2; n 4, 1 uM) was 48.32% and the “Infection Data, Average, Mean” value (SARS2; n 4, 5 uM) was 17.35%. For the same compound, the “Infection Data, Average, Mean” value (SARS2; n 4, 10 uM) was 1.87%, the “Infection Data, Average, Mean” value (SARS2; n 4, 25 uM) was 2.93% and the “Infection Data, Average, Mean” value (SARS2; n 4, 50 uM) was 5.91%. The “Relative cell count to DMSO controls, Average 1 μM” value (cells (nuclei count)) was 118.33, the “Relative cell count to DMSO controls, Average 5 μM” value (cells (nuclei count)) was 139.55 and the “Relative cell count to DMSO controls, Average 10 μM” value (cells (nuclei count)) was 124.03. For the same compound, the “Relative cell count to DMSO controls, Average 25 μM” value (cells (nuclei count)) was 118.34, the “Relative cell count to DMSO controls, Average 50 μM” value (cells (nuclei count)) was 101.49 and the “Toxicity Data, Average, Mean percentage relative to DMSO control” value (cells (nuclei count); n=4, 1 uM) was 118.33%. The “Toxicity Data, Average, Mean percentage relative to DMSO control” value (cells (nuclei count); n=4, 5 uM) was 139.55%, the “Toxicity Data, Average, Mean percentage relative to DMSO control” value (cells (nuclei count); n=4, 10 uM) was 124.03% and the “Toxicity Data, Average, Mean percentage relative to DMSO control” value (cells (nuclei count); n=4, 25 uM) was 118.34%. For the same compound, the “Toxicity Data, Average, Mean percentage relative to DMSO control” value (cells (nuclei count); n=4, 50 uM) was 101.49% and the “Relative cell count to DMSO controls, Average (for correlation analysis)” value (cells (nuclei count)) was 120.35.

In the case of COc1ccc(CNCCc2ccccc2F)c(OCC(O)CN2CCCC2)c1 (racemic) [SILCS43], the “SARS2 antiviral activity” value (SARS2) is reported as “highest activity to date; also recorded: most potent”, the “potency relative to UMB18 (more potent)” value (SARS2) is reported as 3-4 and the “Infection Data, Average, Mean percentage infection relative to DMSO control” value (SARS2; n=4, 1 uM) is reported as 18.21%. The “Infection Data, Average, Mean percentage infection relative to DMSO control” value (SARS2; n=4, 5 uM) was 6.50%, the “Infection Data, Average, Mean percentage infection relative to DMSO control” value (SARS2; n=4, 10 uM) was 0.85% and the “Infection Data, Average, Mean percentage infection relative to DMSO control” value (SARS2; n=4, 25 uM) was 6.12%. The “Infection Data, Average, Mean percentage infection relative to DMSO control” value (SARS2; n=4, 50 uM) was −13.34%, the “Infection Data, Percentage Infection Relative to Appropriate DMSO Control” value (SARS2; Exp 1 (SMW491), 1 uM) was 11.14% and 9.36% and the “Infection Data, Percentage Infection Relative to Appropriate DMSO Control” value (SARS2; Exp 1 (SMW491), 5 uM) was 5.93% and 4.01%. The “Infection Data, Percentage Infection Relative to Appropriate DMSO Control” value (SARS2; Exp 1 (SMW491), 10 uM) was 0.28% and −0.66%, the “Infection Data, Percentage Infection Relative to Appropriate DMSO Control” value (SARS2; Exp 1 (SMW491), 25 uM) was 1.98% and −0.83% and the “Infection Data, Percentage Infection Relative to Appropriate DMSO Control” value (SARS2; Exp 1 (SMW491), 50 uM) was −10.07%. The “Infection Data, Percentage Infection Relative to Appropriate DMSO Control” value (SARS2; Exp 2 (SMW492), 1 uM) was 18.42% and 33.91%, the “Infection Data, Percentage Infection Relative to Appropriate DMSO Control” value (SARS2; Exp 2 (SMW492), 10 uM) was 1.81% and 1.99% and the “Infection Data, Percentage Infection Relative to Appropriate DMSO Control” value (SARS2; Exp 2 (SMW492), 50 uM) was −16.61%. The “Percentage Inhibition Average 1 μM” value (SARS2) was 81.79%, the “Screening data (Relative infection to DMSO controls) Average 1 μM” value (SARS2) was 18.21 and the “Percentage Inhibition Average 5 μM” value (SARS2) was 93.50%. The “Screening data (Relative infection to DMSO controls) Average 5 μM” value (SARS2) was 6.50, the “Percentage Inhibition Average 10 μM” value (SARS2) was 99.15% and the “Screening data (Relative infection to DMSO controls) Average 10 μM” value (SARS2) was 0.85. For the same compound, the “Percentage Inhibition Average 25 μM” value (SARS2) was 93.88%, the “Screening data (Relative infection to DMSO controls) Average 25 μM” value (SARS2) was 6.12 and the “Percentage Inhibition Average 50 μM” value (SARS2) was 113.34%. For the same compound, the “Screening data (Relative infection to DMSO controls) Average 50 μM” value (SARS2) was −13.34, the “Average (relative infection to DMSO over the 5 tested concentrations)” value (SARS2) was 3.67 and the “apparent IC50” value (SARS2; racemic mixture) was “high nanomolar range”. The “Relative cell count to DMSO controls, Average 1 μM” value (cells (nuclei count)) was 154.73, the “Relative cell count to DMSO controls, Average 5 μM” value (cells (nuclei count)) was 151.78 and the “Relative cell count to DMSO controls, Average 10 μM” value (cells (nuclei count)) was 132.39. For the same compound, the “Relative cell count to DMSO controls, Average 25 μM” value (cells (nuclei count)) was 136.27, the “Relative cell count to DMSO controls, Average 50 μM” value (cells (nuclei count)) was 0.01 and the “Toxicity Data, Average, Mean percentage relative to DMSO control” value (cells (nuclei count); n=4, 1 uM) was 154.73%. The “Toxicity Data, Average, Mean percentage relative to DMSO control” value (cells (nuclei count); n=4, 5 uM) was 151.78%, the “Toxicity Data, Average, Mean percentage relative to DMSO control” value (cells (nuclei count); n=4, 10 uM) was 132.39% and the “Toxicity Data, Average, Mean percentage relative to DMSO control” value (cells (nuclei count); n=4, 25 uM) was 136.27%. The “Toxicity Data, Average, Mean percentage relative to DMSO control” value (cells (nuclei count); n=4, 50 uM) was 0.01%, the “Toxicity Data, Percentage Relative to Appropriate DMSO Control” value (cells (nuclei count); Exp 1 (SMW491), 1 uM) was 151% and 166% and the “Toxicity Data, Percentage Relative to Appropriate DMSO Control” value (cells (nuclei count); Exp 1 (SMW491), 5 uM) was 130% and 166%. The “Toxicity Data, Percentage Relative to Appropriate DMSO Control” value (cells (nuclei count); Exp 1 (SMW491), 10 uM) was 118% and 121%, the “Toxicity Data, Percentage Relative to Appropriate DMSO Control” value (cells (nuclei count); Exp 1 (SMW491), 25 uM) was 121% and 136% and the “Toxicity Data, Percentage Relative to Appropriate DMSO Control” value (cells (nuclei count); Exp 1 (SMW491), 50 uM) was 0%. For the same compound, the “Toxicity Data, Percentage Relative to Appropriate DMSO Control” value (cells (nuclei count); Exp 2 (SMW492), 1 uM) was 156% and 145%, the “Toxicity Data, Percentage Relative to Appropriate DMSO Control” value (cells (nuclei count); Exp 2 (SMW492), 5 uM) was 155% and 156% and the “Toxicity Data, Percentage Relative to Appropriate DMSO Control” value (cells (nuclei count); Exp 2 (SMW492), 10 uM) was 145% and 146%. The “Toxicity Data, Percentage Relative to Appropriate DMSO Control” value (cells (nuclei count); Exp 2 (SMW492), 25 uM) was 143% and 145%, the “Toxicity Data, Percentage Relative to Appropriate DMSO Control” value (cells (nuclei count); Exp 2 (SMW492), 50 uM) was 0% and the “Relative cell count to DMSO controls, Average (for correlation analysis)” value (cells (nuclei count)) was 115.04.

For CC1=C(C(=O)OC2CCCCCCC2)C(c2ccc3c(c2)OCO3)NC(=O)N1 (stereo not shown) [UMB22_5], the “SARS2 antiviral activity” value (SARS2) was “improved activity than ring open analogs”.

For O=C(NC1CCCCCC1)c1cn[nH]c1-c1ccc2c(c1)OCCO2 [UMB22_16], the “SARS2 antiviral activity” value (SARS2) was “improved activity than ring open analogs”.
